Reference: patent publication EP3515899B1, “SOLKETAL-ETHERS, PRODUCTION METHOD AND USES THEREOF” (Cepsa S.A.U., priority 2016, dated 2018)

Assay: Solubility of additives in diesel at 4°C (visual phase separation)
Assay type: physicochemical
Details: for limit of addition to diesel by solubility: conclusion from Example 2
Description: Tests for solubility in diesel at 4°C were performed with the effluent of the etherification of solketal with isobutylene. Table 1: Composition of the additive STBE
Three additives were prepared each with a different STBE/SLK ratio (1/3, 1/1 and 3/1 w/w) from […] this effluent. In turn, these additives were added to the same diesel fuel in increasing proportions (2, 10, 20, 30 and 50 % wt.).
Table 5: Results for STBE solubility in diesel at 4°C

SMILES | solubility in diesel at 4°C (0.5 % wt. additive in diesel) | state of additive in diesel (Fig 1) (2% in diesel, photograph) | limit of addition to diesel by solubility | solubility in diesel at 4°C (60 % wt. additive in diesel) | solubility in diesel at 4°C (75 % wt. additive in diesel) | solubility in diesel at 4°C (80 % wt. additive in diesel)
CC1(C)OCC(CO)O1 (stereo not shown) [SLK, 2,2-dimethyl-4-hydroxymethyl-1,3-dioxolane, reference compound] | S | phase separation | ≤ 0.5 % by weight |  |  | 
CCC(C)(C)OCC1COC(C)(C)O1 (stereo not shown) [STAE-97, solketal-ter-amyl-ether] |  |  | not limited by its solubility with diesel | S | S | S
